Test results taken from US8481532B2, “PDE-10 inhibitors” (EnVivo Pharmaceuticals, Inc., priority 2008, dated 2013).
pIC50: −log10 of the molar value. Where two headings read alike, the source gives them in different places.

Key:
[1] = target: Human PDE10A1 (Homo sapiens, UniProt Q9Y233); assay: hPDE10A1 Enzyme Inhibition ([3H]-cAMP scintillation assay); type: biochemical
Method: • hPDE10A1 Enzyme Activity: […] samples of serially diluted Human PDE10A1 enzyme were incubated with 50 μl of [^3H]-cAMP for 20 minutes (at 37° C.). Reactions were carried out in Greiner 96 deep well 1 ml master-block. The enzyme was diluted in 20 mM Tris HCl pH7.4 and [^3H]-cAMP was diluted in 10 mM MgCl2, 40 mM Tris.HCl pH 7.4. The reaction was terminated by denaturing the PDE enzyme (at 70° C.) after which [^3H]-5′-AMP was converted to [^3H]-adenosine by adding 25 μl snake venom nucleotidase and incubating for 10 minutes (at 37° C.). Adenosine, being neutral, was separated from charged cAMP or AMP by the addition of 200 μl Dowex resin. Samples were shaken for 20 minutes then centrifuged for 3 minutes at 2,500 r.p.m. 50 μl of supernatant was removed and added to 200 μl of MicroScint-20 in white plates (Greiner 96-well Optiplate) and shaken for 30 minutes before reading on Perkin Elmer TopCount Scintillation Counter. • hPDE10A1 Enzyme Inhibition: To check inhibition profile 11 μl of serially diluted inhibitor was added to 50 μl of [^3H]-cAMP and 50 μl of diluted Human PDE10A1 and assay was carried out as in the enzyme activity assay. Data was analysed using Prism software (GraphPad Inc).

[2] = system: rats; details: cited from earlier work
[3] = Human PDE10A1, [3H]-cAMP substrate, 20 minutes at 37° C., read-out: hPDE10A1 IC50 Band

Sequence of Human PDE10A1 (Q9Y233 1-779 isoform Q9Y233-1): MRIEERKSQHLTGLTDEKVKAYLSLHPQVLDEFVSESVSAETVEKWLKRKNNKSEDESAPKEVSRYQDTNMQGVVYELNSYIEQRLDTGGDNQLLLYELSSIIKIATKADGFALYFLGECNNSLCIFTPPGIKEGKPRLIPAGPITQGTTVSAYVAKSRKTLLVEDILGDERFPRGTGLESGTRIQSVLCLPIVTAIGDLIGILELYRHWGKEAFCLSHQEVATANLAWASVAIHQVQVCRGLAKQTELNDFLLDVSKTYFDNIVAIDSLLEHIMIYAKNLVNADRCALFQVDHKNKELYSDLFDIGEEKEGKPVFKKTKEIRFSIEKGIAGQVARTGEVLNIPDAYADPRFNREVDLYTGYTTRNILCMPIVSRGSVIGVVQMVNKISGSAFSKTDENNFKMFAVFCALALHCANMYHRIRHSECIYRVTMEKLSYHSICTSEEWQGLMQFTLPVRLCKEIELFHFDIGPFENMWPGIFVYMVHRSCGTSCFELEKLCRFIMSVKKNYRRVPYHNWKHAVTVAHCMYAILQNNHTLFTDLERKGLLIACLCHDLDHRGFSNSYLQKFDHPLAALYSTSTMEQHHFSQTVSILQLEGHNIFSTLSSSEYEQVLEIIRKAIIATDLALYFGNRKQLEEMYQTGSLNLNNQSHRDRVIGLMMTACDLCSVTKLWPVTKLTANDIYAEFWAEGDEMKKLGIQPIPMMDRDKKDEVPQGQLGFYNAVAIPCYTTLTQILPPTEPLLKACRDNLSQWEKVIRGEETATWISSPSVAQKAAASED

## CC(C)(C)c1ccc(C2CC2C(=O)N/N=C/c2cccc3cnccc23)cc1 (stereo not shown) [Example 122, (E)-2-(4-tert-butylphenyl)-N′-(isoquinolin-5-ylmethylene) cyclopropanecarbohydrazide]
[1]
  pIC50: > 6.70

## O=C(N/N=C/c1cccc2cnccc12)C1CC1c1ccc(-c2ccccc2)cc1 (stereo not shown) [Example 196, (E)-2-(biphenyl-4-yl)-N′-(isoquinolin-5-ylmethylene)cyclopropanecarbohydrazide]
[1]; [3]
  pIC50: > 6.70

## C/C(=N\NC(=O)C1CC1c1ccc(C(C)(C)C)cc1)c1cccc2cnccc12 (stereo not shown) [Example 197, (E)-2-(4-tert-butylphenyl)-N′-(1-(isoquinolin-5-yl)ethylidene)cyclopropanecarbohydrazide]
[1]; [3]
  pIC50: > 6.00

## CN(/N=C/c1cccc2cnccc12)C(=O)C1CC1c1ccc(C(C)(C)C)cc1 (stereo not shown) [Example 198, (E)-2-(4-tert-butylphenyl)-N′-(isoquinolin-5-ylmethylene)-N-methylcyclopropanecarbohydrazide]
[1]; [3]
  pIC50: > 6.70

## COc1ccc(Cc2nccc3cc(OC)c(OC)cc23)cc1OC [papaverine]
[2]
  apomorphine induced stereotypies: reduces
  haloperidol induced catalepsy: increases
  rat brain dopamine levels: reduces
